One data set addresses T1, KDR-Kinase (VEGFR-2) (Homo sapiens, UniProt P35968).
T1 construct: GST-kinase domain fusion construct of the KDR kinase; GST
Briefly: KDR Kinase Inhibition. Particulars: GST-kinase domain fusion construct of the KDR kinase; poly(Glu4Tyr) substrate, 32P-ATP, 10 min. The class given is biochemical. The method, then:
Kinase activity was measured with a GST-kinase domain fusion construct of the KDR kinase according to the following protocol to obtain concentration response curves. Components were added into a microtiterplate in the following sequence: 10 μl of inhibitor in threefold final concentration [3% DMSO in buffer (40 mM TrisCl pH 7.5; 1 mM DTT, 1 mM MnCl2, 10 mM MgCl2, 2.5 Promille Polyethyleneglycol 20000)] and 10 μ, of substrate mixture [24 μM ATP, 24 μg/ml poly(Glu4Tyr) in buffer, specific activity approx. 500 cpm/pmol ^32P-[…]ATP]. Reaction was started by adding 10 μl of enzyme preparation diluted appropriately in buffer that contains 10 μM vanadate. After incubation for exactly 10 min the reaction was stopped by adding of 10 μl stop solution (250 mM EDTA). 10 μl of the reaction mixture were transferred to phosphocellulose filters. The filters were washed in 0.1% phosphoric acid, dried before meltilex-scintillator was applied (Wallac, Perkin-Elmer) and the radioactivity was counted.

The target of data set [1] is T2, human Cytochrome P 450 isoenzyme 2C9 (Homo sapiens, UniProt P11712).
T2 construct: host or cells: baculovirus/insect cells
T2 sequence (P11712 whole entry): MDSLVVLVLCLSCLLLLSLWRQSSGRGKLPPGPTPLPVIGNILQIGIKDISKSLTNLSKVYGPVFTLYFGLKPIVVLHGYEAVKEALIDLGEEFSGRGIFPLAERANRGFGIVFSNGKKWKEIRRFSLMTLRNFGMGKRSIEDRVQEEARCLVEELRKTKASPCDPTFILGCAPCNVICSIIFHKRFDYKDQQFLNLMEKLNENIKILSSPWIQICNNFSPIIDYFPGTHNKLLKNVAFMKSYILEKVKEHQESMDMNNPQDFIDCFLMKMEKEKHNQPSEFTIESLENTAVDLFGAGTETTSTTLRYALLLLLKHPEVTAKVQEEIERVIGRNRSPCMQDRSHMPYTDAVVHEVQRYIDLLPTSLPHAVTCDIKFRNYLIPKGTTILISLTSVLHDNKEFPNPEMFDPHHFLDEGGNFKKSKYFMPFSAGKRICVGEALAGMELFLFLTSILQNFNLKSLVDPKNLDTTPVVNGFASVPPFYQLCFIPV
Briefly: Cytochrome P450 Inhibition (2C9). The following applies: baculovirus/insect cell-expressed human isoenzyme, according to Crespi et al.; read-out: IC50 CYP 2C9. The class given is in vitro ADME. The method, then: (§1) Cytochrome P450 Inhibition
(§2) The Cytochrome P450 isoenzyme inhibition was performed according to the publication of Crespi et al. (Anal. Biochem., 1997, 248, 188-190) with use of the baculovirus/insect cell-expressed, human Cytochrome P 450 isoenzymes (2C9 and 2C19).

Data set [2] addresses T3, human Cytochrome P 450 isoenzyme 2C19 (Homo sapiens, UniProt P33261).
T3 construct: host or cells: baculovirus/insect cells
The data set is described as follows: Cytochrome P450 Inhibition (2C19). In kind it is in vitro ADME. Particulars: baculovirus/insect cell-expressed human isoenzyme, according to Crespi et al.; read-out: IC50 CYP 2C19. The method, then:
as §1, §2

Structures are written as SMILES.

T1 sequence (P35968 834-1162 limits assumed, species assumed): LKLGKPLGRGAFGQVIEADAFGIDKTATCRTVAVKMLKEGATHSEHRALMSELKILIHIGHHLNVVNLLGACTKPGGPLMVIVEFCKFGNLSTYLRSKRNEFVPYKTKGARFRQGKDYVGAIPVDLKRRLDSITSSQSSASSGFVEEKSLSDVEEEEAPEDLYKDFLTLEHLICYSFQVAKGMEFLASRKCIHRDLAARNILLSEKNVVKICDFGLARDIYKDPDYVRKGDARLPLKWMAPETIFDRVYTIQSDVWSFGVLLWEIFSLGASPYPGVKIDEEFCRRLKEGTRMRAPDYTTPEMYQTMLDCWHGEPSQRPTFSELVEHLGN
T3 sequence (P33261 whole entry): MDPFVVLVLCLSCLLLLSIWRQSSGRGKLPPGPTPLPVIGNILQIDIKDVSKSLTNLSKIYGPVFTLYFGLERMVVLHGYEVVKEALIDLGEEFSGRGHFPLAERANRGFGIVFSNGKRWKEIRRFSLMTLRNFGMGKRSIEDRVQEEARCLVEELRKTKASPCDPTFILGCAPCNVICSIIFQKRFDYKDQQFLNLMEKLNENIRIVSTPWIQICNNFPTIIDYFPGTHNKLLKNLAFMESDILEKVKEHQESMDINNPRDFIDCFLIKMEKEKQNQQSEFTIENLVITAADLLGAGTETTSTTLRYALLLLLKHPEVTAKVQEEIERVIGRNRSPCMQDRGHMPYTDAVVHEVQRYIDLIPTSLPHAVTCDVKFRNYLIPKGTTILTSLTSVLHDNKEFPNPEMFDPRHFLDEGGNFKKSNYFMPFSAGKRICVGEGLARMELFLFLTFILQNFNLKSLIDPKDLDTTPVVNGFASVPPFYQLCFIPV

With `CCN(C)C(=O)Nc1cc(CNc2ccccc2C(=O)Nc2ccc3cn(C)nc3c2)ccn1` [Example 1.4, 2-{[2-(3-ethyl-3-methyl-ureido)-pyridin-4-ylmethyl]-amino}-N-(2-methyl-2H-indazol-6-yl)-benzamide], the values for the IC50 (at KDR-Kinase (VEGFR-2); in data set [1]; in data set [2]) were 0.024 µM, 6.6 µM and 26 µM, respectively.
In the same order, the values of `CN(C)C(=O)Nc1cc(CNc2ccccc2C(=O)Nc2ccc3c(ccc(=O)n3C)c2)ccn1` [Example 2.2, 2-{[2-(3,3-dimethyl-ureido)-pyridin-4-ylmethyl]-amino}-N-(1-methyl-2-oxo-1,2-dihydro-quinolin-6-yl)-benzamide] are 0.036 µM, 10 µM and 6.4 µM.
As for `CN(C)C(=O)Nc1cc(CNc2ccccc2C(=O)Nc2ccc3cn(C)nc3c2)ccn1` [Example 1.0, 2-{[2-(3,3-dimethyl-ureido)-pyridin-4-ylmethyl]-amino}-N-(2-methyl-2H-indazol-6-yl)-benzamide], the melting point (commonly the temperature of the solid-liquid transition) worked out at 184 °C. The IC50 – broadly, the concentration needed to halve the response being measured – on KDR-Kinase (VEGFR-2) was 0.025 µM. Moreover, the IC50 in data set [1] came out at 6.7 µM. Moreover, the concentration for half-maximal inhibition (IC50) in data set [2] came to 19 µM.
For `CCN(CC)C(=O)Nc1cc(CNc2ccccc2C(=O)Nc2ccc3cn(C)nc3c2)ccn1` [Example 1.1, 2-{[2-(3,3-diethyl-ureido)-pyridin-4-ylmethyl]-amino}-N-(2-methyl-2H-indazol-6-yl)-benzamide], the IC50 at KDR-Kinase (VEGFR-2) came to 0.035 µM; in data set [1] it was 3.8 µM; in data set [2] it was 9.9 µM.

(Values after US7902229B2, “Anthranilamide pyridinureas as vascular endothelial growth factor (VEGF) receptor kinase inhibitors” (Bayer Schering Pharma AG, priority 2004, dated 2011).)
